Target: T1, human mAChR M4 (Homo sapiens, UniProt P08173)
T1 construct: expressed in transfected cells; host or cells: CHO-K1 (ATCC), stably expressing hM4 and Gqi5
T1 sequence (P08173 1-479): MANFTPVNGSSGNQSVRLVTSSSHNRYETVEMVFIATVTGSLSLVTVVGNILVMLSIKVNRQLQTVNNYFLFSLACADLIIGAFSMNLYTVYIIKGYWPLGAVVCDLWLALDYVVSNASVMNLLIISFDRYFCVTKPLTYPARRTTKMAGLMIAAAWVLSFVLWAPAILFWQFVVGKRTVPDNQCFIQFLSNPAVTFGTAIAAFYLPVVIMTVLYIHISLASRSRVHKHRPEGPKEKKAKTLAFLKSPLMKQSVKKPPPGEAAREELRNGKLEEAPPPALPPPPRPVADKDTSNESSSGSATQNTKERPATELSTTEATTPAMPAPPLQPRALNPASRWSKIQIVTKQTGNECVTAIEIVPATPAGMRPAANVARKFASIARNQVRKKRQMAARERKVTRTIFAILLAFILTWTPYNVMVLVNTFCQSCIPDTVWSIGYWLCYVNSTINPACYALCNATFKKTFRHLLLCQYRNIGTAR
Assay: mAChR M4 cell-based functional assay: calcium flux (Fluo-4, FDSS), positive allosteric modulator activity on the EC20 acetylcholine response, hM4-Gqi5 CHO-K1 cells
Settings: for Emax at 30 µM: CHO-K1, human M4, % ACh maximum at 30 μM; for EC50: human M4, PAM activity on EC20 acetylcholine response, calcium flux, read-out: Human M4 EC50
Outline: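 Potentiation was taken as the concentration-dependent rise in the EC20 acetylcholine calcium response, fitted by a four-parameter logistic with EC20 as baseline. Fluo-4-loaded hM4-Gqi5 CHO-K1 cells received 11-point, threefold-diluted compound before acetylcholine at 144 s; FDSS read at 1 Hz.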

| Structure (SMILES) | Emax at 30 µM [%] | EC50 [nM] |
| --- | --- | --- |
| Cc1nc(N2CCc3ncc(N4CCOC(c5cccnc5)C4)cc3C2)c2cc(F)ccc2n1 (centres unmarked) [Compound 230, 4-(6-(6-fluoro-2-methylquinazolin-4-yl)-5,6,7,8-tetrahydro-1,6-naphthyridin-3-yl)-2-(pyridin-3-yl)morpholine] | 86 | 500 |
| Fc1ccccc1Oc1cnc2c(c1)CN(c1ncnc3ccc(Cl)cc13)CC2 [Compound 232, 6-chloro-4-(3-(2-fluorophenoxy)-7,8-dihydro-1,6-naphthyridin-6(5H)-yl)quinazoline] | 77 | 740 |
| CC1CN(c2ncnc3ccc(F)cc23)Cc2cc(N(c3cccnc3)c3cccnc3)cnc21 (centres unmarked) [Compound 235, 6-(6-fluoroquinazolin-4-yl)-8-methyl-N,N-di(pyridin-3-yl)-5,6,7,8-tetrahydro-1,6-naphthyridin-3-amine] | 77 | 630 |
| CC1CN(c2ncnc3ccc(F)cc23)Cc2cc(Nc3ncnc4ccc(F)cc34)cnc21 (centres unmarked) [Compound 237, 6-fluoro-N-(6-(6-fluoroquinazolin-4-yl)-8-methyl-5,6,7,8-tetrahydro-1,6-naphthyridin-3-yl)quinazolin-4-amine] | 55 | 1400 |
| C[C@@H]1CN(c2cnc3c(c2)CN(c2ncnc4cc(F)c(F)cc24)CC3)CCO1 [Compound 241, (R)-4-(6-(6,7-difluoroquinazolin-4-yl)-5,6,7,8-tetrahydro-1,6-naphthyridin-3-yl)-2-methylmorpholine] | 77 | 80 |
| c1cnc2nc(NC3CC3)nc(N3CCc4ncc(N5CCCn6nccc65)cc4C3)c2c1 [Compound 244, N-cyclopropyl-4-(3-(6,7-dihydropyrazolo[1,5-a]pyrimidin-4(5H)-yl)-7,8-dihydro-1,6-naphthyridin-6(5H)-yl)pyrido[2,3-d]pyrimidin-2-amine] | 70 | 240 |
| c1cnc2nc(NC3CCOC3)nc(N3CCc4ncc(N5CCCn6nccc65)cc4C3)c2c1 (centres unmarked) [Compound 245, 4-(3-(6,7-dihydropyrazolo[1,5-a]pyrimidin-4(5H)-yl)-7,8-dihydro-1,6-naphthyridin-6(5H)-yl)-N-(tetrahydrofuran-3-yl)pyrido[2,3-d]pyrimidin-2-amine] | 80 | 220 |
| c1cnc2nc(N3CCCC3)nc(N3CCc4ncc(N5CCCn6nccc65)cc4C3)c2c1 [Compound 246, 4-(3-(6,7-dihydropyrazolo[1,5-a]pyrimidin-4(5H)-yl)-7,8-dihydro-1,6-naphthyridin-6(5H)-yl)-2-(pyrrolidin-1-yl)pyrido[2,3-d]pyrimidine] | 63 | 50 |
| c1cnc2nc(N3CCOCC3)nc(N3CCc4ncc(N5CCCn6nccc65)cc4C3)c2c1 [Compound 250, 4-(4-(3-(6,7-dihydropyrazolo[1,5-a]pyrimidin-4(5H)-yl)-7,8-dihydro-1,6-naphthyridin-6(5H)-yl)pyrido[2,3-d]pyrimidin-2-yl)morpholine] | 73 | 360 |
| CC1CN(c2ncnc3ccc(Cl)cc23)Cc2cc(N3CCOCC3)cnc21 (centres unmarked) [Compound 253, 4-(6-(6-chloroquinazolin-4-yl)-8-methyl-5,6,7,8-tetrahydro-1,6-naphthyridin-3-yl)morpholine] | 96 | 30 |
| Cc1nc(N2CCc3ncc(-c4ccnn4C(C)C)cc3C2)c2cc(Cl)ccc2n1 [Compound 254, 6-chloro-4-(3-(1-isopropyl-1H-pyrazol-5-yl)-7,8-dihydro-1,6-naphthyridin-6(5H)-yl)-2-methylquinazoline] | 86 | 360 |
| Cc1nc(N2CCc3ncc(-c4ccnn4C4COC4)cc3C2)c2cc(Cl)ccc2n1 [Compound 255, 6-chloro-2-methyl-4-(3-(1-(oxetan-3-yl)-1H-pyrazol-5-yl)-7,8-dihydro-1,6-naphthyridin-6(5H)-yl)quinazoline] | 76 | 610 |
| Cc1nc(N2CCc3ncc(-c4c(C)cnn4C)cc3C2)c2cc(Cl)ccc2n1 [Compound 256, 6-chloro-4-(3-(1,4-dimethyl-1H-pyrazol-5-yl)-7,8-dihydro-1,6-naphthyridin-6(5H)-yl)-2-methylquinazoline] | 94 | 140 |

Other lines, results leading:

| Emax at 30 µM [%] | EC50 [nM] | Structure (SMILES) |
| --- | --- | --- |
| 86 | 510 | Fc1ccc2ncnc(N3CCc4ncc(N5CCOC(c6cccnc6)C5)cc4C3)c2c1 (centres unmarked) [Compound 229, 4-(6-(6-fluoroquinazolin-4-yl)-5,6,7,8-tetrahydro-1,6-naphthyridin-3-yl)-2-(pyridin-3-yl)morpholine] |
| 92 | 50 | Clc1ccc2ncnc(N3CCc4ncc(C5CC5)cc4C3)c2c1 [Compound 231, 6-chloro-4-(3-cyclopropyl-7,8-dihydro-1,6-naphthyridin-6(5H)-yl)quinazoline] |
| 84 | 410 | CC1CN(c2ncnc3ccc(F)cc23)Cc2cc(NC3CCCC3)cnc21 (centres unmarked) [Compound 233, N-cyclopentyl-6-(6-fluoroquinazolin-4-yl)-8-methyl-5,6,7,8-tetrahydro-1,6-naphthyridin-3-amine] |
| 86 | 110 | CC1CN(c2ncnc3ccc(F)cc23)Cc2cc(Nc3cccnc3)cnc21 (centres unmarked) [Compound 234, 6-(6-fluoroquinazolin-4-yl)-8-methyl-N-(pyridin-3-yl)-5,6,7,8-tetrahydro-1,6-naphthyridin-3-amine] |
| 86 | 140 | CC1CN(c2ncnc3ccc(F)cc23)Cc2cc(N3CCOCC3)cnc21 (centres unmarked) [Compound 236, 4-(6-(6-fluoroquinazolin-4-yl)-8-methyl-5,6,7,8-tetrahydro-1,6-naphthyridin-3-yl)morpholine] |
| 65 | 220 | Fc1cc2ncnc(N3CCc4ncc(-n5cccn5)cc4C3)c2cc1F [Compound 238, 4-(3-(1H-pyrazol-1-yl)-7,8-dihydro-1,6-naphthyridin-6(5H)-yl)-6,7-difluoroquinazoline] |
| 73 | 800 | Cn1nccc1-c1cnc2c(c1)CN(c1ncnc3cc(F)c(F)cc13)CC2 [Compound 239, 6,7-difluoro-4-(3-(1-methyl-1H-pyrazol-5-yl)-7,8-dihydro-1,6-naphthyridin-6(5H)-yl)quinazoline] |
| 79 | 210 | Cc1noc(C)c1-c1cnc2c(c1)CN(c1ncnc3cc(F)c(F)cc13)CC2 [Compound 240, 4-(6-(6,7-difluoroquinazolin-4-yl)-5,6,7,8-tetrahydro-1,6-naphthyridin-3-yl)-3,5-dimethylisoxazole] |
| 90 | 30 | CC1(C)CN(c2cnc3c(c2)CN(c2ncnc4cc(F)c(F)cc24)CC3)CCO1 [Compound 242, 4-(6-(6,7-difluoroquinazolin-4-yl)-5,6,7,8-tetrahydro-1,6-naphthyridin-3-yl)-2,2-dimethylmorpholine] |
| 91 | 70 | Fc1cc2ncnc(N3CCc4ncc(Nc5cccnc5F)cc4C3)c2cc1F [Compound 243, 6-(6,7-difluoroquinazolin-4-yl)-N-(2-fluoropyridin-3-yl)-5,6,7,8-tetrahydro-1,6-naphthyridin-3-amine] |
| 80 | 370 | CC(C)(O)CNc1nc(N2CCc3ncc(N4CCCn5nccc54)cc3C2)c2cccnc2n1 [Compound 247, 1-((4-(3-(6,7-dihydropyrazolo[1,5-a]pyrimidin-4(5H)-yl)-7,8-dihydro-1,6-naphthyridin-6(5H)-yl)pyrido[2,3-d]pyrimidin-2-yl)amino)-2-methylpropan-2-ol] |
| 82 | 300 | OC1(C2CC2)CN(c2nc(N3CCc4ncc(N5CCCn6nccc65)cc4C3)c3cccnc3n2)C1 [Compound 248, 3-cyclopropyl-1-(4-(3-(6,7-dihydropyrazolo[1,5-a]pyrimidin-4(5H)-yl)-7,8-dihydro-1,6-naphthyridin-6(5H)-yl)pyrido[2,3-d]pyrimidin-2-yl)azetidin-3-ol] |
| 47 | 810 | CC1(C)CN(c2nc(N3CCc4ncc(N5CCCn6nccc65)cc4C3)c3cccnc3n2)CCO1 [Compound 249, 4-(4-(3-(6,7-dihydropyrazolo[1,5-a]pyrimidin-4(5H)-yl)-7,8-dihydro-1,6-naphthyridin-6(5H)-yl)pyrido[2,3-d]pyrimidin-2-yl)-2,2-dimethylmorpholine] |
| 75 | 750 | CC1CN(c2ncnc3ccc(F)cc23)Cc2cc(N3C(=O)COc4ccccc43)cnc21 (centres unmarked) [Compound 251, 4-(6-(6-fluoroquinazolin-4-yl)-8-methyl-5,6,7,8-tetrahydro-1,6-naphthyridin-3-yl)-2H-benzo[b][1,4]oxazin-3(4H)-one] |
| 90 | 150 | CC1CN(c2ncnc3cc(F)c(F)cc23)Cc2cc(N3CCOCC3)cnc21 (centres unmarked) [Compound 252, 4-(6-(6,7-difluoroquinazolin-4-yl)-8-methyl-5,6,7,8-tetrahydro-1,6-naphthyridin-3-yl)morpholine] |

Source: patent US20250026752A1, “POSITIVE ALLOSTERIC MODULATORS OF THE MUSCARINIC ACETYLCHOLINE RECEPTOR M4” (Vanderbilt University, priority 2021, published 2025)
